What was measured:
[1] = tested on: advanced solid malignancies or lymphoma; details: cited from earlier work
[2] = tested on: normal cells (blood, bone marrow from healthy donors, iMSC#3); assay: Toxicity towards normal cells ex vivo, ATP viability 72h; type: cell-based, human; details: 1 nM to 10 μM
Experimental: 349 compounds from anti-cancer Selleck Chemical library were pre-aliquoted at five concentrations, increasing in 10-fold steps from 1 nM to 10 μM, in 384-well plates using an Echo Liquid Handler. Each plate also contained positive (benzethonium chloride, BzCl) and negative (DMSO only) controls. Additional drugs were added manually to the same plates at the same concentration range. Cells were seeded directly into the plates containing the drugs. After 72h viability was assessed through levels of ATP, with Cell Titer Glow assay (Promega, Wisconsin, United States) and luminescence quantified using a […]. Data from drug screens were analyzed with R version 3.4.0 (R_Core_Team, 2017) normalized to median positive (BzCl) and median negative (DMSO) controls using formula: (drug-BzCl)/(DMSO–BzCl), with total viability calculated as the area under the curve over all five drug concentrations, adjusted using qualitatively constrained quantile smoothing splines, R package ‘cobs’ version 1.3–3 [22]. […] For two cases where the z’-factor was below 0.5, strictly standardized mean difference (SSMD) was additionally calculated, giving the population value (β) of SSMD -4 and -5, respectively, indicating good quality. […]

[3] = tested on: all cancer cell lines (NCI-60); set-up: method as in NCI-60 project; details: ref NCI-60 project; cited from earlier work

SMILES | patients with partial response or stable disease ([1]; heavily pretreated patients with solid tumors) | toxicity towards normal cells compared with liposarcoma cell lines [2] | IC50 [3] | patients with complete or partial responses ([1]; phase I, advanced solid malignancies or lymphoma)
Cn1cc(CNCC2CCN(c3ncc(C(=O)NO)cn3)CC2)c2ccccc21 [JNJ-26481585] | 10% | more toxic to bone marrow cells in vitro than to liposarcoma cell lines | – | –
CC(C)[C@]12O[C@H]1[C@@H]1O[C@]13[C@]1(O[C@H]1C[C@H]1C4=C(CC[C@@]13C)C(=O)OC4)[C@@H]2O [Triptolide] | – | more toxic to bone marrow cells in vitro than to liposarcoma cell lines | 12 nM | –
COCCn1c2c([n+](Cc3cnccn3)c1C)C(=O)c1ccccc1C2=O [YM155] | – | – | – | 14%

— PMC7946228, “Discovery of novel candidates for anti-liposarcoma therapies by medium-scale high-throughput drug screening” (PLoS ONE, 2021)
